No end group written: not given here.
How the values were obtained:
LDL [1] = test: BIAcore affinity of immobilized peptide to LDL in HBS buffer; format: binding; conditions: 6-minute injection, based on the immobilized amount of RRWFW-CONH2 as standard
Excerpt: (§1) Further, the binding ability (affinity) of the adsorbent for an LDL can also be determined by using BIAcore (manufactured and sold by Pharmacia Biosensor AB, Sweden), in accordance with the instructions given in a manual attached to BIAcore. Specifically, the binding ability of the adsorbent for an LDL can also be determined by a method in which the peptide is immobilized on a sensor chip of the BIAcore, and a solution containing LDL, such as plasma, is flowed over the sensor chip.
Twenty-six different peptides and four different comparative peptides (which are all shown in Table 11; wherein for Example 11, Sample Nos. 1, 4 and 5-26 are SEQ ID NOS:35, 89 and 36-57, respectively, and wherein for Comparative Example 8, Sample Nos. 1, 2, 3 and 4 are SEQ ID NOS:86, 87, 90 and 88, respectively) were prepared in substantially the same manner as in Example 7. […]
The affinity of the peptide to the LDL contained in HBS buffer was measured using the above-mentioned BIAcore (provided with the sensor chip having the peptide immobilized thereon) as follows. […] However, since the amounts of the peptides immobilized on the sensor chip vary depending on the types of the peptides, the amount of a peptide of RRWFW-CONH2 immobilized on the sensor chip was taken as a standard amount and the affinities of various tested peptides were determined, based on the above standard amount.

LDL [2] = test: BIAcore affinity of immobilized peptide to LDL in plasma; format: binding; conditions: plasma containing 1 mg/ml LDL versus LDL-free plasma; based on the immobilized amount of RRWFW-CONH2 as standard
Excerpt: as §1
Twenty-seven different peptides and four different comparative peptides (which are all shown in Table 12, wherein for Example 12, Sample Nos. 12-15 are SEQ ID NOS:12-15, respectively) were prepared in substantially the same manner as in Example 7. Each of the obtained peptides was individually dissolved in a 10 mM acetate buffer (pH: 5.5) to thereby obtain peptide solutions each having a peptide concentration of […]. […]
The affinity of the peptide to the LDL in plasma was measured using the above-mentioned BIAcore (provided with the sensor chip having the peptide immobilized thereon) as follows. […]

Substance	Affinity to LDL (RU) (LDL [1])	Affinity to LDL (RU) (LDL [2])
DPSVY-CONH2 (DPSVY-NH2)	310	250
EMEEV-CONH2 (EMEEV-NH2)	730	270
